The values below come from patent US20240215578A1 (priority 2022, published 2024).

Series [1] concerns R. solanacearum. Format: cell-based. The conditions noted are these: Oxford cup, 37° C., 16-18 hours, FIG. 1.
Series [2] has as its system R. solanacearum. Particulars: for bactericidal activity against R. solanacearum: from data in Table 4.

Consider `O=C(O)c1cn(C2CC2)c2nc(N3CCNCC3)c(F)cc2c1=O` [Compound I44], for which the “bactericidal activity (zone of inhibition), preliminary screening” value in the series with R. solanacearum [1] is given as “significant bactericidal activity”. In the series with E. coli, the 50% lethal concentration (LC50) stood at 0.0000091 ppm and the “activity against E. coli compared with the control drugs” value is “more active against E. coli than the control drugs”. Moreover, in the series on E. carotovora, the 50% lethal concentration (LC50) stood at 0.00018 ppm and the “activity against E. carotovora compared with the control drugs” value is “more active against E. carotovora than the control drugs”. Also, in the series with R. solanacearum [2], the LC50 is on record as 0.284 ppm and the “bactericidal activity against R. solanacearum” value is reported as “significant bactericidal activity”.

Take `[H]/N=C(/N)N[C@H]1[C@H](O)[C@@H](O)[C@H](O[C@@H]2O[C@@H](C)[C@](O)(C=O)[C@H]2O[C@@H]2O[C@@H](CO)[C@H](O)[C@@H](O)[C@@H]2NC)[C@@H](N/C(N)=N\[H])[C@@H]1O` [Streptomycin, reference compound]: the LC50 with E. coli is 1.918 ppm; in the series with E. carotovora, 4.519 ppm; in the series with R. solanacearum [2], 0.169 ppm.

For `O=C(O)c1cn(C2CC2)c2nc(Cl)c(F)cc2c1=O` [Compound I40], the “bactericidal activity (zone of inhibition), preliminary screening” value with R. solanacearum [1] is “significant bactericidal activity”. Further, in the series on E. coli, the LC50 worked out at 0.064 ppm and the “activity against E. coli compared with the control drugs” value is listed as “more active against E. coli than the control drugs”. Besides, in the series on E. carotovora, the median lethal concentration (LC50) worked out at 4.040 ppm and the “activity against E. carotovora compared with the control drugs” value was “more active against E. carotovora than the control drugs”. For the same compound, in the series with R. solanacearum [2], the LC50 is recorded as 0.002 ppm and the “bactericidal activity against R. solanacearum” value is on record as “significant bactericidal activity”.

On to `CCn1cc(C(=O)O)c(=O)c2cc(F)c(Cl)nc21` [Compound I38], for which the “bactericidal activity (zone of inhibition), preliminary screening” value with R. solanacearum [1] was “significant bactericidal activity”. In addition, the values for the LC50 in the series on E. coli, with E. carotovora and in the series on R. solanacearum [2] were 12.643 ppm, 0.264 ppm and 12.724 ppm, respectively. In addition, in the series on E. carotovora, the “activity against E. carotovora compared with the control drugs” value is “more active against E. carotovora than the control drugs”.

With `CCn1cc(C(=O)O)c(=O)c2ccc(C)nc21` [Compound I36], in the series on R. solanacearum [1], the “bactericidal activity (zone of inhibition), preliminary screening” value is listed as “significant bactericidal activity”. Besides, the values for the LC50 in the series with E. coli, with E. carotovora and in the series with R. solanacearum [2] were 37.917 ppm, 15.743 ppm and 30.519 ppm, respectively.

`O=C(O)c1cn(C2CC2)c2ccccc2c1=O` [Compound I2]: the “bactericidal activity (zone of inhibition), preliminary screening” value in the series with R. solanacearum [1] is given as “significant bactericidal activity”. The figures for the LC50 with E. coli, in the series with E. carotovora and with R. solanacearum [2] were 0.913 ppm, 5.284 ppm and 13.790 ppm, respectively. The “activity against E. coli compared with the control drugs” value with E. coli is listed as “more active against E. coli than the control drugs”.
